Experimental data published in PubChem BioAssay AID179 (DTP/NCI, 2004).
Activity calls are given as the source filed them.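 Rule for the calls: active = compounds giving half or more protection of infected cells from virus-caused growth loss, again on retest; inactive = the rest.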

Test system: CEM cells HIV-1 protection, formazan growth assay
Assay: NCI AIDS Antiviral Assay
Conditions: for IC50: measured here: growth of uninfected CEM cells
Method in brief: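 Screen of anti-HIV-1 activity in human CEM cells using a formazan-based growth measurement at five drug concentrations. Hits with 50% or greater protection were repeated, and confirmation required reproducible complete protection.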

| SMILES | EC50 | IC50 | outcome |
| --- | --- | --- | --- |
| COc1cc(-c2ccc(N=Nc3cc4cc(S(=O)(=O)O)ccc4cc3O)c(OC)c2)ccc1N=Nc1cc2cc(S(=O)(=O)O)ccc2cc1O | 17.4 µM | 120 µM |  |
| CN(/N=C\c1ccc2ccccc2c1)C1=NCCN1 | > 200 µM | 22.9 µM |  |
| CNc1nnnn1C1OC(CO)C(O)C1O (stereo unspecified) | > 1070 µM | > 1070 µM |  |
| COc1cc(=O)cc2n(c1=O)CCC2 | > 447 µM | > 447 µM |  |
| Cc1c2ccccc2nc(CSc2ccc(Cl)cc2)[n+]1[O-] | 45.7 µM | 105 µM |  |
| COc1ccc2[nH]c(Br)c(CCNC(C)=O)c2c1 | > 200 µM | > 200 µM |  |
| N#Cc1c(N)c2c(c(-c3ccccc3)c1-c1ccccc1)C(=O)N(N)C2=O | > 200 µM | 117 µM |  |
| CC(C)C(/C=C/c1ccccc1)=N\NC(=S)NN | > 200 µM | 102 µM |  |
| CC1=CC(=O)C2(C)CC[C@]3(O)CCCC123 (stereo partly specified) |  |  | inactive |
| CN1C(=O)CC2(C)c3cc(C=O)ccc3N(C)C12 (stereo unspecified) |  |  | inactive |
| C=C1N(c2nc(Cl)nc(Cl)n2)c2ccccc2C1(C)C | > 200 µM | 186 µM |  |
| COc1ccccc1NC(=S)N/C=C(\C#N)S(=O)(=O)c1ccc(C)cc1 | > 200 µM | > 200 µM |  |
| N#Cc1ccc(Sc2ccccc2)cc1C#N | > 110 µM | > 110 µM |  |
| O=C(Oc1ccccc1)N(CCO)C(c1ccccc1)C(O)c1ccccc1 (stereo unspecified) | > 200 µM | 5.25 µM |  |
| CCOC(=O)/C(=C\c1ccc(OC)cc1)P(=O)(OCC)OCC | > 380 µM | 77.6 µM |  |
| CN1CCN(CCCN2c3ccccc3Sc3ccccc32)CC1 | > 741 µM | 33.1 µM |  |
| C[N+](C)(CCNC(=O)c1cccc2cc3ccccc3nc12)Cc1ccc([N+](=O)[O-])cc1 | > 200 µM | 97.7 µM |  |
| O=C1NC(=O)C(=Cc2ccccc2Cl)C(=O)N1 | > 269 µM | 2.63 µM |  |
| CC(O[Si](C)(C)C)C1C=CC(C)n2c(=O)n(-c3ccccc3)c(=O)n21 (stereo unspecified) |  |  | inactive |
| C=CC(CCCCCCCC(=O)O)S(=O)(=O)O (stereo unspecified) | > 200 µM | > 200 µM |  |
| O=c1[nH][nH]c(=O)c2nc(Nc3ccco3)ncc12 | > 240 µM | > 240 µM |  |
| N/N=C1\C(=O)N(C2CCCCCC2)C(=O)C1C(=O)NC1CCCCCC1 (stereo unspecified) | > 14.5 µM | > 14.5 µM |  |

| SMILES | EC50 | IC50 | outcome |
| --- | --- | --- | --- |
| CNc1cc[nH]c(=O)c1NC(C)=O | > 1380 µM | > 1380 µM |  |
| Cc1cc(=O)oc2c1cc1ccc3cccc4ccc2c1c34 |  |  | inactive |
| Cc1ccc(/C=C(\NC(=O)c2ccccc2)c2nc3ccccc3[nH]2)cc1 | > 74.1 µM | > 74.1 µM |  |
| CN1CCN(c2n[nH]c(=O)c3c2nnn3C2CCCCC2)CC1 | > 200 µM | > 200 µM |  |
| Cc1ccc2c(c1)NC(=O)C(N=[N+]=[N-])(c1ccccc1)C2=O (stereo unspecified) | > 200 µM | 49 µM |  |
| Cc1cc(=O)[nH]c(NN2C(Cl)C(=O)C2c2cccc([N+](=O)[O-])c2)n1 (stereo unspecified) | > 53.7 µM | 15.5 µM |  |
| CO[C@@H]1C[C@H]2[C@@H]3CC[C@H]([C@@H](C)CO)[C@@]3(C)CC[C@@H]2[C@@]2(C)CC[C@H]3C[C@]312 | > 200 µM | 102 µM |  |
| Cc1cc(N(CCC#N)CCC#N)ccc1N=Nc1ccc([N+](=O)[O-])cc1 | > 14.5 µM | > 14.5 µM |  |
| O=C(c1ccc(Cl)cc1)N(C(=S)OCc1ccccn1)c1ccccc1 | > 200 µM | 83.2 µM |  |
| COc1ccc(Nc2c(C#N)c3n(c4ccccc24)c2ccccc2[n+]3C)cc1OC | > 200 µM | 3.09 µM |  |
| NC(=Nc1ccc(O)cc1)S(=O)O | > 200 µM | 120 µM |  |
| O=C(O)C12C3CCCC1C2CC3 (stereo unspecified) |  |  | inactive |
| O=C(Cn1cc(-c2ccccc2)nn1)NC1CCCC1 | > 200 µM | > 200 µM |  |
| CC[C@@]1(O)C(=O)OCc2c1cc1n(c2=O)Cc2cc3cc(OC)ccc3nc2-1 | > 0.1 µM | 0.0186 µM |  |
| Cc1ccc(N2C(=O)/C(=C/c3ccc(N(CCC#N)CCC#N)cc3)N=C2COc2ccc(Cl)cc2Cl)cc1 |  |  | inactive |
| COc1ccccc1NC(=O)/C(=C\n1c(=S)[nH]c2ccc([N+](=O)[O-])cc21)C(C)=O | > 200 µM | 112 µM |  |
| Cn1ccc2c3c(ccc21)C(N1CCOCC1)=CS(=O)(=O)O3 |  |  | inactive |
| COCC(C)(C)N=CN1Cc2cc3ccccc3nc2C1 | > 178 µM | > 178 µM |  |
| CCOC(=O)C(CO)c1nc2c([nH]c1=O)c(=O)n(C)c(=O)n2C (stereo unspecified) | > 200 µM | > 200 µM |  |
| c1ccc2c(c1)[nH]c1cnc3c4cccnc4[nH]c3c12 | > 135 µM | 12.6 µM |  |
| O=C(CC(=O)Nc1ccccc1F)N/N=C/c1ccccc1 |  |  | inactive |
| CC1C2CC(C(C3C(=O)C4CC3C(C)(C)C4C)C2=O)C1(C)C (stereo unspecified) | > 437 µM | > 437 µM |  |

| SMILES | EC50 | IC50 | outcome |
| --- | --- | --- | --- |
| Fc1cccc2c(=S)cn[nH]c12 | > 200 µM | 186 µM |  |
| COc1cccc2c1OC(c1cccc3ccccc13)C([N+](=O)[O-])=C2 (stereo unspecified) | > 2 µM | 1.07 µM |  |
| COc1c(O)c2c(=O)cc(OC)c3c4c(OC)cc(=O)c5c(O)c(OC)c6c(c(c1CC(C)(O)C6C(C)=O)c23)c54 (stereo unspecified) | > 13.2 µM | 1.58 µM |  |
| CCOc1cnc([C@H]2CCC3[C@@H]4CC=C5C[C@@H](O)CC[C@]5(C)C4CC[C@@]32C)s1 (stereo partly specified) | > 61.7 µM | > 61.7 µM |  |
| COC(=O)C1=CCC(n2cnc3c(N)ncnc32)CC1 (stereo unspecified) | > 912 µM | 110 µM |  |
| C=CC[C@]12C=C(OC)[C@@H](O)[C@](OC)(C(c3cc(OC)c4c(c3)OCO4)[C@H]1C)[C@H]2OC(C)=O (stereo partly specified) | > 200 µM | 129 µM |  |
| CC(=O)C(C(C)=O)C1c2ccccc2-n2nc(-c3ccccc3)c(O)c21 (stereo unspecified) | > 100 µM | 0.794 µM |  |
| CC(C)=CCN1Cc2cc(Cl)cc3[nH]c(=S)n(c23)CC1C (stereo unspecified) |  | 26.9 µM | active |
| COC(=O)n1c(=O)n(-c2ccccc2)c(=O)n1C(=O)Nc1ccccc1 | > 200 µM | 195 µM |  |
| COC(=O)c1c(-c2ccccc2)c2sc3ccccc3n2c1N | > 200 µM | > 200 µM |  |
| Cn1c2c(sc1=O)CCC2 | > 200 µM | > 200 µM |  |
| OCCN(CCO)c1ccc2c(C(F)(F)F)cc(C(F)(F)F)nc2n1 | > 200 µM | 148 µM |  |
| O=[N+]([O-])c1ncc(N(CCO)CCO)s1 | > 200 µM | 85.1 µM |  |
| O=c1ssc(=Nc2ccc(Cl)cc2)n1-c1ccc(Cl)cc1 | > 200 µM | 8.91 µM |  |
| C=C1CN(S(=O)(=O)c2ccc(C)cc2)CCCN(Cc2cccs2)CCCN(S(=O)(=O)c2ccc(C)cc2)C1 | > 200 µM | 70.8 µM |  |
| Cc1cn(C2CC(N=[N+]=[N-])C(COC(=O)[C@@]3(O)CCC4C5CCC6=CC(=O)C=C[C@]6(C)C5[C@@H](O)C[C@@]43C)O2)c(=O)[nH]c1=O (stereo partly specified) | 1.15 µM | 22.9 µM |  |
| CC1=C(c2nc3ccccc3s2)C(=O)OC1(C)C | > 182 µM | 123 µM |  |
| COc1cc2c3c(c1OC)C1(C=CC(=O)C=C1)CC3N(C(=O)OC(C)(C)C(Cl)(Cl)Cl)CC2 (stereo unspecified) |  |  | inactive |
| Cn1cnc([N+](=O)[O-])c1Sc1ncn[nH]1 | > 1100 µM | 17.8 µM |  |
| CC1(C)C[C@@H]2C1CCC1(C)CC2(O)CC[C@H]1O (stereo partly specified) | > 200 µM | > 200 µM |  |
| S=C(SSC(=S)C1CCCC1=NC1CCCCC1)C1CCCC1=NC1CCCCC1 (stereo unspecified) | > 200 µM | 151 µM |  |
